Where two headings read alike, the source gives them in different places.
Key:
[1] = Phase 1 single- and multiple-ascending dose study: plasma PK of Compound A after oral Compound 1; type: in vivo, human; conditions: for Ctau / AUCtau/D / Cmax/D / AUC: Day 10, mean; for AUCtau/D / Cmax/D: dose-normalized; for half-life / AUC / Tmax: human, plasma
Method: A 2-part, single- and multiple-ascending dose sponsor-unblinded Phase 1 study was conducted for Cohorts 1-9 to evaluate the safety, tolerability, PK, and PD of Compound 1 in healthy participants. Up to 72 participants ages 18 to 55 years (inclusive) and having body mass index (BMI) of ≥19.0 and ≤30.0 kg/m^2 were enrolled. For Cohort 9, participants were homozygous for the UGT1A1*28 allele (UGT1A1 *28/*28: TA7/TA7).
Part A proceeded in 4 staggered, dose-escalation cohorts. Within each of Cohorts 1-4, 8 unique participants were randomized 3:1 to receive blinded Compound 1 (N=6) or placebo-to-match (PTM) (N=2). The dose of Compound 1 for all adaptive cohorts (Cohorts 2, 3, and 4) was determined based on cumulative safety and available PK data through a minimum of Day 3 from previous cohorts, not exceeding the specified upper dose limit (Table 2). Dosing in Part A was completed prior to proceeding with Part B.
Part B proceeded in up to 5 staggered, dose-escalation cohorts. Within each of Cohorts 5-9, 8 unique participants were randomized 3:1 to receive blinded Compound 1 (N=6) or PTM (N=2). Start of multiple dosing within Adaptive Cohort 5 was determined by review of the cumulative safety and PK data through at least Day 3 of the final cohort in Part A. Initiation of subsequent multiple-dose cohorts at a higher dose (Cohorts 6, 7, 8, and 9) was determined based on cumulative safety through at least Day 10 from all participants enrolled in the previous multiple-dose cohort (Table 3).
For Cohorts 1-4, plasma PK sampling occurred relative to the dose of Compound 1 at the following time points: • Day 1: 0 (pre-dose, ≤5 min prior to dosing), 0.25, 0.5, 1, 1.5, 2, 3, 4, 6, 8, 12, 18, 24, 36, 48, 72, 96, and 120 hours post-dose A single plasma PK sample was collected at early termination (ET), if applicable.
For Cohorts 5-9, plasma PK sampling occurred relative to the dose of Compound 1 at the following time points: • Day 1 (Cohorts 8 and 9): pre-dose (≤5 min before dose), 0.5, 1, 2, 3, 4, 6, 8, 12, 13, 14, 15, 16, 18, and 20 hours post-dose (relative to AM dose) • Day 10 (Cohorts 5-9): pre-dose (≤5 min before dose), 0.25, 0.5, 1, 1.5, 2, 3, 4, 6, 8, 12, 18, 24, 36, 48, 72, 96, and 120 hours post-dose • A pre-dose sample was collected on Days 2, 4, 7, and 8. A single plasma PK sample was collected at early termination (ET), if applicable.
Concentrations of Compound 1, and its respective metabolites Compound A and Compound B in plasma PK samples were determined by validated high-performance liquid chromatography-tandem mass spectrometry (LC-MS/MS) bioanalytical methods.
Pharmacokinetic parameters for Compound 1 and its metabolites were determined from the plasma concentration-time profiles for all evaluable participants.
Compound 1 was administered under fasting conditions following an overnight fast (no food or drinks except water) for at least 10 hours; food could be consumed 4 hours after administration of Compound 1.

[2] = Drug-drug interaction: Compound 1 on PK of combined oral contraceptive DRSP/EE; type: in vivo, human; conditions: co-administration of Compound 1 (600 mg) with DRSP/EE, relative to DRSP/EE alone
Method: A Phase 1, open-label, single-center, multiple-cohort study was conducted to evaluate the effect of a mixed OATP/P-gp inhibitor (cyclosporine A; CsA) or food on the PK of Compound 1, the effect of Compound 1 on the PK of midazolam (MDZ), the effect of Compound 1 on the PK of OATP/CYP3A/BCRP substrates using atorvastatin (ATV), pravastatin (PRA), and rosuvastatin (ROS), and the effect of Compound 1 on the PK of a representative combined oral contraceptive (drospirenone/ethinyl estradiol; DRSP/EE), in healthy participants. 70 participants ages 18 to 55 years (inclusive) and having BMI of ≥18.0 kg/m^2 and ≤30.0 kg/m^2 were enrolled. For Cohorts 1-3, there were an approximately even distribution of healthy participants assigned male at birth and nonpregnant, nonlactating participants assigned female at birth. Cohort 4 included only healthy, nonpregnant, nonlactating participants assigned female at birth.
Participants in Cohort 4 received treatment sequence OPQR.
Treatment O: Single dose of DRSP 3 mg and EE 0.02 mg, administered under fasting condition on Day 1 of Period 1 […]
Concentrations of Compound 1 and its active metabolites Compound A and Compound B, MDZ and its metabolite 1-OH-MDZ, ATV and its metabolite 2-OH-ATV, PRA, ROS, DRSP, and EE in plasma PK samples were determined by validated high performance liquid chromatography tandem mass spectrometry (LC-MS/MS) bioanalytical methods.

[3] = Cohort 5, 75 mg Cpd 1 QD fasted
[4] = Cohort 6, 300 mg Cpd 1 QD fasted
[5] = Cohort 7, 900 mg Cpd 1 QD fasted

Cn1ccc2c([C@H](Nc3cc(Cl)c4ncc(C#N)c(NCC(C)(C)C)c4c3)c3cn(C45CC(C4)C5)nn3)cccc2c1=O [Compound A]
Ctau [1, 3]: 0.273 µg/mL
Ctau [1, 4]: 1.07 µg/mL
Ctau [1, 5]: 2.33 µg/mL
time to steady-state exposures ([1]; Compound 1 once-daily dosing): ≤ 7 days
AUCtau/D [1, 3]: 0.141 µg·h/mL
Cmax/D [1, 3]: 13.1 ng/mL
AUCtau/D [1, 4]: 0.125 µg·h/mL
Cmax/D [1, 4]: 10.6 ng/mL
AUCtau/D [1, 5]: 0.0691 µg·h/mL
Cmax/D [1, 5]: 5.5 ng/mL
half-life ([1]; oral, 75 mg, Cohort 5, 75 mg Cpd 1 QD fasted, Day 10, median, read-out: t1/2 (converted)): 21.8 h
half-life ([1]; oral, 300 mg, Cohort 6, 300 mg Cpd 1 QD fasted, Day 10, median, read-out: t1/2 (converted)): 19 h
half-life ([1]; oral, 900 mg, Cohort 7, 900 mg Cpd 1 QD fasted, Day 10, median, read-out: t1/2 (converted)): 28.5 h
half-life ([1]; oral, across Compound 1 dose levels, single or multiple doses, read-out: median t1/2): 20 to 30 h
AUC ([1]; oral, Cohort 5, 75 mg Cpd 1 QD fasted): 10500 ng·h/mL
Tmax ([1]; oral, Cohort 5, 75 mg Cpd 1 QD fasted, Day 10, median, read-out: Tmax): 3 h
AUC ([1]; oral, Cohort 6, 300 mg Cpd 1 QD fasted): 37400 ng·h/mL
Tmax ([1]; oral, Cohort 6, 300 mg Cpd 1 QD fasted, Day 10, median, read-out: Tmax): 4 h
AUC ([1]; oral, Cohort 7, 900 mg Cpd 1 QD fasted): 62200 ng·h/mL
Tmax ([1]; oral, Cohort 7, 900 mg Cpd 1 QD fasted, Day 10, median, read-out: Tmax): 3.01 h
Tmax ([1]; oral, multiple doses of Compound 1 (75 to 900 mg QD, 600 mg BID), fasted, range across cohorts, read-out: median Tmax): 2 to 4 h
half-life ([1]; oral, multiple doses of Compound 1 (75 to 900 mg QD, 600 mg BID), fasted, range across cohorts, read-out: median t1/2): 19 to 28 h
half-life ([1]; po, single oral doses of Compound 1 (300 to 1500 mg), fasted, range across doses, read-out: median terminal elimination t1/2): 22 to 29 h
Tmax ([1]; single oral doses of Compound 1 (300 to 1500 mg), fasted, range across doses, read-out: median Tmax): 3 to 4 h
exposure (AUC) accumulation ([1]; multiple dosing of 600 mg Compound 1 once daily): approximately 2 fold
steady-state plasma exposure (Cmax and AUC) ([1]; multiple once-daily doses of Compound 1, 75 to 900 mg, fasted): increased in a dose-dependent manner
plasma exposure (Cmax, AUCinf, and AUClast) ([1]; single oral doses of Compound 1, 300 to 900 mg dose range, fasted): increased in a dose-dependent manner

Cn1ccc2c([C@@H](c3cn(C45CC(C4)C5)nn3)N(C(=O)OCOP(=O)(O)O)c3cc(Cl)c4ncc(C#N)c(NCC(C)(C)C)c4c3)cccc2c1=O [Compound 1]
change in AUCinf of DRSP [2]: no change
change in Cmax of EE [2]: no change

— patent US20250213550A1, “COMPOUNDS AND METHODS FOR TREATING INFLAMMATORY BOWEL DISEASE” (Gilead Sciences, Inc., priority 2023, published 2025)
